According to BindingDB's records for patent US12496348 (Dana-Farber Cancer Institute, 2025):

Target: CREB-binding protein (Homo sapiens, UniProt Q92793)
Assay: CBP (Bromodomain) AlphaScreen Assay
Protocol: Assays were performed with minimal modifications from the manufacturer's protocol (PerkinElmer , USA). All reagents were diluted in 50 mM 4-(2-hydroxyethyl)-1-piperazineethanesulfonic acid (HEPES), 150 mM NaCl, 0.1% w/v bovine serum albumin (BSA), 0.01% w/v Tween 20, pH 7.5 and allowed to equilibrate to room temperature prior to addition to plates. After addition of AlphaScreen acceptor beads to master solutions, all subsequent steps were performed under low light conditions. A 2× solution of components with final concentrations of CBP bromodomain at 40 nM, Ni-coated Acceptor Bead at 10 μg/ml, and 7.2 nM biotinylated-Int-2 was added in 10 μL to 384-well plates (AlphaPlate-384, PerkinElmer , USA). Plates were spun down at 150×g, 100 nL of compound in dimethyl sulfoxide (DMSO) from stock plates were added by pin transfer using a Janus Workstation (PerkinElmer , USA). The streptavidin-coated donor beads ([…] final) were added as with previous the solution in a 2×10 μL volume. Following this addition, plates were sealed with foil to prevent light exposure and evaporation. The plates were spun down again at 150×g. Plates were incubated at room temperature for 1 hour and then read on a 2104 EnVision Multilabel Plate Reader (PerkinElmer , USA) using the manufacturer's protocol.

Chain of CREB-binding protein (Q92793 whole entry): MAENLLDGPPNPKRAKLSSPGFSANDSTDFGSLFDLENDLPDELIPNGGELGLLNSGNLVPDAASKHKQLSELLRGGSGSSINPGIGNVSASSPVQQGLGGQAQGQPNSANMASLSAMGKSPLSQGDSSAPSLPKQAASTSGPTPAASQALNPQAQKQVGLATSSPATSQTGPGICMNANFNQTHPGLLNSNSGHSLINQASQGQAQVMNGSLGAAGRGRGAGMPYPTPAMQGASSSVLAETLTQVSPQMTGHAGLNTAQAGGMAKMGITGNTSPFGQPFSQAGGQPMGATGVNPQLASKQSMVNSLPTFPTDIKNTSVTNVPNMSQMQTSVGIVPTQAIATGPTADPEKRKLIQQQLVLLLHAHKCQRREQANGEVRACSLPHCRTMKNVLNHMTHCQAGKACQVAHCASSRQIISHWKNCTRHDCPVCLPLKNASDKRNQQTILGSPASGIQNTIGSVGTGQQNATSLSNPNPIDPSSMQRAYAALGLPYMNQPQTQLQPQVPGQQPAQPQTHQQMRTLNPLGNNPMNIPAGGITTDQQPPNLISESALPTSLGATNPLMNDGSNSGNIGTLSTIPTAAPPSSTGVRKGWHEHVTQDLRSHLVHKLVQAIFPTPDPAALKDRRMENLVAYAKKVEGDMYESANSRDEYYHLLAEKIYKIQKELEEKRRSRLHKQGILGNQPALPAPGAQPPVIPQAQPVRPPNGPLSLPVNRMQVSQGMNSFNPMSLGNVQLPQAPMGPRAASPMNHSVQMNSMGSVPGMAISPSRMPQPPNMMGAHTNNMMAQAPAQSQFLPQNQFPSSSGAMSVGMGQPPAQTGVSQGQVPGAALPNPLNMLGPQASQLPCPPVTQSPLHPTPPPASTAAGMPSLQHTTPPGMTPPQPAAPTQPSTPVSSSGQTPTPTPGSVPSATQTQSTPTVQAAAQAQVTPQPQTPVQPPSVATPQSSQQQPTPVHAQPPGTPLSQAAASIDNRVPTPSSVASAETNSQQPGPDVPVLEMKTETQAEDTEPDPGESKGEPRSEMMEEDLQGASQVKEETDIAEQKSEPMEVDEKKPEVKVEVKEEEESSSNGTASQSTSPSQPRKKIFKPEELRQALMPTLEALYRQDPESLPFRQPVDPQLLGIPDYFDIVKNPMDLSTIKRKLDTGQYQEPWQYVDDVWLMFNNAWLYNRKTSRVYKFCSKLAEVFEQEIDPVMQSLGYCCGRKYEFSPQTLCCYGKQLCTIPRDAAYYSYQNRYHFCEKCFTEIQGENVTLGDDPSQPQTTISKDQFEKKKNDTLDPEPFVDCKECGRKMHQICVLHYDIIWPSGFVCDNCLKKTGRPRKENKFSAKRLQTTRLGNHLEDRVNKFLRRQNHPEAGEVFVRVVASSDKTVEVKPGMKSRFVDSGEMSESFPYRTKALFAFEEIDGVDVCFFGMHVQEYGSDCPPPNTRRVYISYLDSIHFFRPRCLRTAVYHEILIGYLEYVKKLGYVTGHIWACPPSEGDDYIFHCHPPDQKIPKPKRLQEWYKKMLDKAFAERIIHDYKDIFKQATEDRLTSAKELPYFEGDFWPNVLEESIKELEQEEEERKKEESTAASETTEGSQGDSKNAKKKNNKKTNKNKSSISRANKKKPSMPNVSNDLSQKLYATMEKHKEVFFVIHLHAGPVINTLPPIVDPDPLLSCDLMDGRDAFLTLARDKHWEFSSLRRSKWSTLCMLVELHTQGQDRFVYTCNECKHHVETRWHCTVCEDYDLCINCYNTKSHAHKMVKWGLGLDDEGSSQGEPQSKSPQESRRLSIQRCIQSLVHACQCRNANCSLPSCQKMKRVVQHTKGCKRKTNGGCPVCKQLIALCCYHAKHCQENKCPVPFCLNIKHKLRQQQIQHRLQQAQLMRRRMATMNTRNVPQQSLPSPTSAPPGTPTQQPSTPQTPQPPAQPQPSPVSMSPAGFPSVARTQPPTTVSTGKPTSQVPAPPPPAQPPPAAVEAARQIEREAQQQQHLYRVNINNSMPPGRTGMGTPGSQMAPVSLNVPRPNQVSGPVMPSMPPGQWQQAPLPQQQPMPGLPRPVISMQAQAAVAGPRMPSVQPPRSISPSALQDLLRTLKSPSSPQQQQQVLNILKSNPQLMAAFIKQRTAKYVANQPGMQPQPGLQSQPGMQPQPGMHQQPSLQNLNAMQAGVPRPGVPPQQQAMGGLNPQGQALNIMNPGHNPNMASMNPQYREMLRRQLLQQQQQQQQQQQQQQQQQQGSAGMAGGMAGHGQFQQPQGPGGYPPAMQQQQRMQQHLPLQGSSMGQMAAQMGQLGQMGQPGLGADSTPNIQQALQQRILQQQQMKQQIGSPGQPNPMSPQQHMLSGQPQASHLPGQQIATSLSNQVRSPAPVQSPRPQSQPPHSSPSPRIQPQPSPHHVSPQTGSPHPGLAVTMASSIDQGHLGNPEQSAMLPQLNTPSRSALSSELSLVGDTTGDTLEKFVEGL

SMILES: Cc1noc(C)c1-c1ccc2nc(-c3ccc(N4CCN(C(=O)CCCCCCCCCCCNc5ccc6c(c5)C(=O)N(C5CCC(=O)NC5=O)C6=O)CC4)cc3)c(NC3CCCCC3)n2c1 (stereo unspecified) [US12496348, Compound 1]
- IC50: 18.9 µM
